{"source": "paper PMC10179505", "about": "“Rivastigmine–Benzimidazole Hybrids as Promising Multitarget Metal-Modulating Compounds for Potential Treatment of Neurodegenerative Diseases” (International Journal of Molecular Sciences, 2023)", "key": {"hMAO-A": {"target": "T1, hMAO-A (Homo sapiens, UniProt P21397)", "T1 construct": "purchased Sigma-Aldrich Quimica S.A., Madrid, Spain; host or cells: insect cells (BTI-TN-5B1-4) infected with recombinant baculovirus", "T1 sequence (P21397 1-527)": "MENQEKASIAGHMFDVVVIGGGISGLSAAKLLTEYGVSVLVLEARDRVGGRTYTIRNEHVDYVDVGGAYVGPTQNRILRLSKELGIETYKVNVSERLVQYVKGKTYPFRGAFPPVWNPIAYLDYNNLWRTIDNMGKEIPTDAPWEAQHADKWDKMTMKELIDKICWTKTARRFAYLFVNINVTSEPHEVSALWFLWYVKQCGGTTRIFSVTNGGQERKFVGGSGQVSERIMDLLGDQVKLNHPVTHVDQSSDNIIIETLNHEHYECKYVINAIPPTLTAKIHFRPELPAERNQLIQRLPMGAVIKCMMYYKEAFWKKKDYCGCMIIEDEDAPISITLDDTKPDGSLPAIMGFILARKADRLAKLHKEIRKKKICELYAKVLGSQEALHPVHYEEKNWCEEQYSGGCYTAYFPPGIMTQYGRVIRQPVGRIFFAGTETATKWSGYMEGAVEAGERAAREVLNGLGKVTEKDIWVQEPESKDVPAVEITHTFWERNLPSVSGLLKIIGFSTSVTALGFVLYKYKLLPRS", "assay": "hMAO-A inhibition (kynuramine to 4-hydroxyquinoline, microsomal recombinant enzyme)", "assay_type": "biochemical", "details": "for inhibition at 10 µM: read-out: % Inhibition (at 10 µM) hMAO-A", "experimental": "(§1) The inhibitory activity of the rivastigmine hybrids (RIV–BIM) on hMAO-A and hMAO-B was studied using an experimental protocol described elsewhere with some modifications. The outlined hMAO inhibition was assessed in microsomal MAO isoforms prepared from insect cells (BTI-TN-5B1-4) infected with recombinant baculovirus containing cDNA inserts for hMAO-A or hMAO-B (Sigma-Aldrich Quimica S.A., Madrid, Spain) and by measuring the enzymatic conversion rates of kynuramine into 4-hydroxyquinoline. […] All assays were performed under sodium phosphate-buffered conditions (50 mM, pH = 7.4). […] Then, the reaction was started with the addition of hMAO-A or hMAO-B. Initial velocities were determined spectrophotometrically in a microplate reader (Biotek Synergy HT, Winooski, VT, USA) at 37 °C by measuring the formation of 4-hydroxyquinoline at 316 nm, over a period of at least 30 min (interval of 1 min). Data were analyzed using GraphPad PRISM version 6 for Windows (GraphPad Software®, San Diego, CA, USA). The initial velocities, obtained from the linear phase of product formation, were normalized and plotted against the respective inhibitor concentration. IC50 values were obtained from dose–response curves and were expressed as the mean ± standard deviation. IC50 values were determined from at least three independent experiments, each performed in triplicate."}, "Aβ42 [1]": {"system": "Aβ42", "details": "absence of copper, 20 µM inhibitor, thioflavin-T fluorescence; cited from earlier work"}, "hMAO-B": {"target": "T2, hMAO-B (Homo sapiens, UniProt P27338)", "T2 construct": "purchased Sigma-Aldrich Quimica S.A., Madrid, Spain; host or cells: insect cells (BTI-TN-5B1-4) infected with recombinant baculovirus", "T2 sequence (P27338 1-520)": "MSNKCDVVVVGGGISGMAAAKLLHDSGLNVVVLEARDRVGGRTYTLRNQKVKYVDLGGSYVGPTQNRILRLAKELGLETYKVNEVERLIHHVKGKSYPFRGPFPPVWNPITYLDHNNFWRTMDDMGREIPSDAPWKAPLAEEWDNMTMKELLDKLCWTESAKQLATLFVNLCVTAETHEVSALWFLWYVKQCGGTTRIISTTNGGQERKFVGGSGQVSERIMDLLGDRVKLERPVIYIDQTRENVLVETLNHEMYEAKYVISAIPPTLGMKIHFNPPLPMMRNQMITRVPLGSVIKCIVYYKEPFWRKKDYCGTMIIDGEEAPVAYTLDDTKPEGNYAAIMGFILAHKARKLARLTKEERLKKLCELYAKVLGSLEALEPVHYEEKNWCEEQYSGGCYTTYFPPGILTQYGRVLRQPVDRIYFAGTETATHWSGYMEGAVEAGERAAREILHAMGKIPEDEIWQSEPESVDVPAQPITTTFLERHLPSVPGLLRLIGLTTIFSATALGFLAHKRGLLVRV", "assay": "hMAO-B inhibition (kynuramine to 4-hydroxyquinoline, microsomal recombinant enzyme)", "assay_type": "biochemical", "experimental": "as §1"}, "[2]": {"assay": "Fe(III) complexation by spectrophotometric titration", "assay_type": "physicochemical", "experimental": "(§2) The metal complexation studies were performed by spectrophotometric titration, in the same 50% w/w DMSO/water medium used for both ligands alone, with fitting analysis of the UV-Vis spectra by Psequad. The calculated metal-chelating equilibrium models, included in Table 1, show good chelating capacity towards Cu(II) (pCu~10.3–13.6) and Fe(III) (pFe~16.8–17.4), involving complex species with a 1:1 to 1:2 or 1:1 to 1:3 M/L ratio, respectively. Metal coordination is expected to occur primarily through the phenolic oxygen and the imidazole nitrogen N(3) of the BIM moiety.\n(§3) The two positional isomeric hybrids 4c and 5a were titrated, alone or in the presence of the metal ions, in a 50% w/w DMSO/H2O medium, at T = 25.0 ± 0.1 °C and ionic strength of (I) 0.1 M KCl, by using a 0.1 M KOH (50% w/w DMSO/H2O) titrant solution. The glass and Ag/AgCl reference electrodes were previously conditioned in different DMSO/H2O mixtures of increasing DMSO % compositions, and the response of the glass electrode was evaluated by strong acid–strong base (HCl/KOH) calibrations with the determination of the Nernst parameters by Gran’s method. […] The spectrophotometric measurements were carried out in a 250–450 nm (L, Cu/L systems) or 250–650 nm (L, Fe/L systems) wavelength range at pH ca 2.5–8.0. Under these specified experimental conditions, the pKw value (14.95) was determined and subsequently used in the calculations. The stepwise protonation constants of the ligands, Ki = [HiL]/[Hi−1L][H], and the overall metal–complex stability constants, βMmHhLl = [MmHhLl]/[M]^m[H]^h[L]^l, were calculated by fitting the spectrophotometric data with the Psequad program. The metal hydrolysis model was determined under the established experimental conditions (I = 0.1 M KCl, 50% w/w DMSO/H2O, T = 25.0 ± 0.1 °C) and the following values of stability constants were included in the equilibrium models related to the Fe(III)/L and Cu(II)/L systems: log βFeH−1 = −4.07, log βFeH−3 = −11.42; log βCu2H−2 = −9.99. The species distribution curves were obtained with the Hyss program."}, "[3]": {"assay": "Protonation constants by spectrophotometric titration (Psequad fitting)", "assay_type": "physicochemical", "details": "pH 7.4, CL = 1 × 10^−5 M", "experimental": "To formulate the model for the metal chelation mechanism of compounds 4c and 5a, their protonation constants were first determined by spectrophotometric titrations in a 50% (w/w) DMSO/H2O medium by fitting the experimental data with the program Psequad. This working medium was adopted to perform all the equilibrium studies due to certain solubility problems of the compounds. Since the concentration of the compound used in cell studies is low (<7 μM), the final corresponding concentration of DMSO in culture media would be much lower (<1%) and also is not expected to induce modifications of biological tissues.\nThe two positional isomeric hybrids 4c and 5a were titrated, alone or in the presence of the metal ions, in a 50% w/w DMSO/H2O medium, at T = 25.0 ± 0.1 °C and ionic strength of (I) 0.1 M KCl, by using a 0.1 M KOH (50% w/w DMSO/H2O) titrant solution. The glass and Ag/AgCl reference electrodes were previously conditioned in different DMSO/H2O mixtures of increasing DMSO % compositions, and the response of the glass electrode was evaluated by strong acid–strong base (HCl/KOH) calibrations with the determination of the Nernst parameters by Gran’s method. […] Under these specified experimental conditions, the pKw value (14.95) was determined and subsequently used in the calculations. […]"}, "[4]": {"assay": "Cu(II) complexation by spectrophotometric titration", "assay_type": "physicochemical", "experimental": "as §2, §3"}, "Aβ42 [5]": {"system": "Aβ42", "details": "presence of copper (40 µM), 20 µM inhibitor, thioflavin-T fluorescence; cited from earlier work"}, "SH-SY5Y cells": {"system": "SH-SY5Y cells", "assay_type": "cell-based, human", "details": "MPP+ 0.5 mM, 24 h, MTT", "experimental": "SH-SY5Y human neuroblastoma cells were kept in culture under a humidified atmosphere of 5% CO2 at 37 °C in Dulbecco’s Modified Eagle Medium/Nutrient Mixture F-12 (DMEM/F-12) (Gibco, Thermo Fisher Scientific) supplemented with 10% heat-inactivated fetal bovine serum (FBS), 50 U/mL penicillin, and 50 μg/mL streptomycin. Cells were plated at a density of 1 × 10^5 cells/mL and pre-incubated for 1 h with the compounds by adding them to the medium at the following final concentrations: 1 µM for compounds 4a, 4b, and 5b; 2 µM for compounds 4c and 5a; and 3 µM for compound 4d. Then the cells were incubated for 24 h with MPP^+ (1-methyl-4-phenylpyridinium, Sigma-Aldrich) (1 h pre-incubation + 24 h incubation) at the final concentration of 0.5 mM. MPP^+ was freshly prepared in sterile water on the day of the experiment. The compounds were dissolved in DMSO, aliquoted, and stored at −20 °C; their toxicity was previously studied through cell viability assays to select the highest non-toxic concentration of each compound.\nCell viability was measured by the colorimetric MTT (3-(4,5-dimethylthiazol-2-yl)-2,5-diphenyltetrazolium bromide) reduction assay, which follows the principle that viable cells can metabolize MTT into formazan that absorbs light at 570 nm. After the cell treatments with the compounds and MPP^+, the culture medium was removed, 150 µL of MTT (0.5 mg/mL dissolved in sodium medium) was added to each well, and the 48-well plate was incubated at 37 °C for 2 h. The formazan precipitates were then solubilized with 150 µL of 0.04 M HCl/isopropanol. The absorbance was read at 570 nm using a spectrophotometer (Spectramax Plus 384), and cell viability results were normalized to untreated SH-SY5Y cells, with the means ± SEMs derived from six different experiments performed in duplicate (N = 6). Statistical analyses were performed on GraphPad Prism 8 (GraphPad Software, San Diego, CA, USA) using one-way analysis of variance (ANOVA) followed by Tukey’s post hoc test or using Student’s t-test to determine statistical significance."}, "[6]": {"details": "pM = −log[M] at pH 7.4, CL/CM = 10, CM = 10^−6 M"}}}
{"compound": "C[C@H](NCc1ccc(OCc2cccc(F)c2)cc1)C(N)=O", "note": "[Safinamide, safinamide, reference compound]", "values": [{"measurement": "inhibition at 10 µM", "setting": "hMAO-A", "value": 13, "unit": "%"}]}
{"compound": "CCN(C)C(=O)Oc1cccc(NC(=O)c2cccc3[nH]c(-c4ccccc4O)nc23)c1", "note": "[5a]", "values": [{"measurement": "Aβ42 Self- Aggreg. Inhib.", "setting": "Aβ42 [1]", "value": 44.5, "unit": "%"}, {"measurement": "inhibition at 10 µM", "setting": "hMAO-B", "value": 31, "unit": "%"}, {"measurement": "log βFemHhLl, global formation constant, species (102)", "setting": "[2]; FeL2 (102), T = 25.0 ± 0.1 °C, I = 0.1 M KCl, 50% w/w DMSO/water", "value": "23.82(4)"}, {"measurement": "log βFemHhLl, global formation constant, species (103)", "setting": "[2]; FeL3 (103), T = 25.0 ± 0.1 °C, I = 0.1 M KCl, 50% w/w DMSO/water", "value": "30.20(8)"}, {"measurement": "log βFemHhLl, global formation constant, species (101)", "setting": "[2]; FeL (101), T = 25.0 ± 0.1 °C, I = 0.1 M KCl, 50% w/w DMSO/water", "value": "12.53(5)"}, {"measurement": "pM (pFe)", "setting": "[2]; [6]", "value": 17.4}, {"measurement": "predominant neutral species HL", "setting": "[3]", "value": 94.9, "unit": "%"}, {"measurement": "logβCumHhLl, global formation constant, species (1–11)", "setting": "[4]; CuH−1L (1–11), T = 25.0 ± 0.1 °C, I = 0.1 M KCl, 50% w/w DMSO/water", "value": "3.82(8)"}, {"measurement": "logβCumHhLl, global formation constant, species (102)", "setting": "[4]; CuL2 (102), T = 25.0 ± 0.1 °C, I = 0.1 M KCl, 50% w/w DMSO/water", "value": "20.43(5)"}, {"measurement": "logβCumHhLl, global formation constant, species (101)", "setting": "[4]; CuL (101), T = 25.0 ± 0.1 °C, I = 0.1 M KCl, 50% w/w DMSO/water", "value": "11.30(2)"}, {"measurement": "Kd", "setting": "[4]; calculated at pH 7.4, read-out: conditional dissociation constant (K’d) for the copper complex", "value": 0.098, "unit": "nM"}, {"measurement": "pM (pCu)", "setting": "[4]; [6]", "value": 13.6}, {"measurement": "inhibition at 10 µM", "setting": "hMAO-A", "value": 33, "unit": "%"}, {"measurement": "Aβ42 Cu-ind. Aggreg. Inhib.", "setting": "Aβ42 [5]", "value": 45.4, "unit": "%"}]}
{"compound": "C[n+]1ccc(-c2ccccc2)cc1", "note": "[MPP^+, 1-methyl-4-phenylpyridinium, reference compound]", "values": [{"measurement": "decrease in cell viability compared with untreated cells", "setting": "SH-SY5Y cells", "value": "approximately 30%"}]}
{"compound": "CCN(C)C(=O)Oc1ccc(CCCNC(=O)c2ccc3[nH]c(-c4ccccc4O)nc3c2)cc1", "note": "[4d]", "values": [{"measurement": "Aβ42 Self- Aggreg. Inhib.", "setting": "Aβ42 [1]", "value": 20.1, "unit": "%"}, {"measurement": "inhibition at 10 µM", "setting": "hMAO-B", "value": 43, "unit": "%"}, {"measurement": "IC50", "setting": "hMAO-A", "value": "11 ± 1", "unit": "µM"}, {"measurement": "hMAO isoform selectivity", "setting": "hMAO-A; hMAO-A vs hMAO-B", "value": "selective for isoform A"}, {"measurement": "Aβ42 Cu-ind. Aggreg. Inhib.", "setting": "Aβ42 [5]", "value": 21.3, "unit": "%"}]}
